Like-named read-outs stand apart in the source and are kept apart here.
Legend:
Assay type in all cases: cell-based
Settings in all cases: 48 hours
IL-17FF = IL-17FF production by PHA-stimulated human PBMC (human IL-17F ELI-Pair)
Procedure: Analysis of Proliferation of and Cytokine Production by Human PBMC Stimulated with PHA
Peripheral blood mononuclear cells (PBMC) from healthy human donors were purified using Accuspin™ System-Histopaque-1077 (Sigma) according to the protocol recommended by the manufacturer. Purified PBMC were then washed twice with phosphate-buffered saline (PBS) and resuspended in RPMI1640 culture medium supplemented with 10% dialyzed heat inactivated fetal calf serum, 1.5 mM L-glutamine, 100 U penicillin/ml, and […] (all from PAN Biotech, Aidenbach, Germany). For stimulation, PBMC were seeded at 1×10^5 cells/well, activated with 2 μg/ml phytohaemagglutinin (PHA, Sigma) and incubated with the test compounds for 48 hours. IL-17A, IL-17F and INF-γ were then determined in the culture supernatant using a Luminex BioPlex system, following the manufacturer's instructions (BioRad, Munich, Germany). For screening, compounds were used at 10, 1, 0.1 and 0.01 μM. To determine the IC50, compounds were titrated semilogarithmically.
Cytokines were determined in the aforementioned culture supernatant using the following methods: IL-17AA/AF was measured using the Luminex BioPlex system (BioRad, Munich, Germany); IL-17AA using the human homodimer IL-17A ELISA Ready Set Go Kit from eBioscience (Frankfurt, Germany); IL-17FF using the human IL-17F ELI-Pair from Hölzel DiagnosticaGmBH (Köln, Germany); and IFN-γ using the OptEIA human IFN-g ELISA from BD Bioscience (Heidelberg, Germany), all following the manufacturer's instructions.

IFN-γ = IFN-γ production by PHA-stimulated human PBMC (OptEIA human IFN-g ELISA)
Outline: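 Compounds are titrated semilogarithmically for IC50, or tested at 10, 1, 0.1 and 0.01 μM for screening, on healthy-donor PBMC activated with 2 μg/ml PHA. After 48 h, secreted cytokine is measured in supernatant.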

[1] = test system: PBMC from healthy human donors; experiment: T cell proliferation assay (PHA-stimulated human PBMC, BrdU ELISA)
Procedure: Cell proliferation was analysed using the BrdU based cell proliferation ELISA from Roche (Mannheim, Germany) according to the manufacturer's instructions. T Cell Proliferation Assay Peripheral blood mononuclear cells (PBMC) from healthy human donors were isolated by centrifugation over Ficoll-Hypaque (Sigma-Aldrich, Germany) according to manufacturer's instructions. Purified PBMC were washed twice with PBS and resuspended in RPMI1640 culture medium supplemented with 10% dialyzed heat inactivated fetal calf serum, 1.5 mM L-glutamine, 100 U penicillin/ml, and […] (all from PAN Biotech, Aidenbach, Germany). For stimulation, PBMC were seeded at 1×10^5 cells/well, activated with 2 μg/ml phytohaemagglutinin (PHA, Sigma) and incubated with the test compound. After 48 hours proliferation was measured using the BrdU based cell proliferation ELISA from Roche (Mannheim, Germany) according to the manual.

[2] = PHA-stimulated human PBMC, column B, read-out: IC50 (IL-17FF)
[3] = PHA-stimulated human PBMC, column C, read-out: IC50 (IFNγ)
[4] = PHA-stimulated human PBMC, column D, read-out: IC50 (Tcell proliferation)

SMILES | IC50 (IL-17FF; [2]) [nM] | IC50 (IFN-γ; [3]) [nM] | IC50 (IL-17FF; human PBMC, 2 μg/ml PHA, read-out: B: IC50 (IL-17FF)) [nM] | IC50 (IFN-γ; human PBMC, 2 μg/ml PHA, read-out: C: IC50 (IFNγ)) [nM] | IC50 [1, 4] [nM] | IC50 ([1]; human PBMC, 2 μg/ml PHA, read-out: D: IC50 (Tcell proliferation)) [nM]
COC(=O)c1c(-c2c(F)cccc2Cl)noc1-c1cnn(-c2c(Cl)cccc2Cl)c1C(F)(F)F [Example I-70, methyl 3-(2-chloro-6-fluorophenyl)-5-(1-(2,6-dichlorophenyl)-5-(trifluoromethyl)-1H-pyrazol-4-yl)isoxazole-4-carboxylate] | 100 to 1000 | 100 to 1000 |  |  | 100 to 1000 | 
CCOC(=O)c1c(-c2onc(-c3c(F)cccc3Cl)c2C(=O)OC)cnn1-c1cccc(C#N)c1 [Example I-13, methyl 3-(2-chloro-6-fluorophenyl)-5-(1-(3-cyanophenyl)-5-(ethoxycarbonyl)-1H-pyrazol-4-yl)isoxazole-4-carboxylate] | 100 to 1000 | 100 to 1000 |  |  | 100 to 1000 | 
CCOC(=O)c1c(-c2ccc(Cl)cc2)noc1-c1cnn(-c2cccc(Cl)c2)c1C(F)(F)F [Example I-77, ethyl 3-(4-chlorophenyl)-5-(1-(3-chlorophenyl)-5-(trifluoromethyl)-1H-pyrazol-4-yl)isoxazole-4-carboxylate] | 1000 to 10000 |  |  |  | 1000 to 10000 | 
Fc1cccc(Cl)c1-c1noc(-c2cnn(-c3ccncc3)c2C(F)(F)F)c1-c1ccoc1 [Example B-24, 3-(2-chloro-6-fluorophenyl)-4-(furan-3-yl)-5-(1-(pyridin-4-yl)-5-(trifluoromethyl)-1H-pyrazol-4-yl)isoxazole] |  |  | 10 to 100 | 10 to 100 |  | 10 to 100
COC(=O)c1c(-c2c(F)cccc2Cl)noc1-c1cnn(-c2ccccn2)c1C(F)(F)F [Example I-84, methyl 3-(2-chloro-6-fluorophenyl)-5-(1-(pyridin-2-yl)-5-(trifluoromethyl)-1H-pyrazol-4-yl)isoxazole-4-carboxylate] | < 10 | < 10 |  |  | < 10 | 
COC(=O)c1c(-c2c(F)cccc2Cl)noc1-c1cnn(-c2cccc(Cl)c2)c1 [Example I-115, methyl 3-(2-chloro-6-fluorophenyl)-5-(1-(3-chlorophenyl)-1H-pyrazol-4-yl)isoxazole-4-carboxylate] | 1000 to 10000 | 1000 to 10000 |  |  | 1000 to 10000 | 
CCOC(=O)c1c(-c2onc(-c3c(F)cccc3Cl)c2C(=O)OC)cnn1-c1cccc(Cl)c1Cl [Example I-9, methyl 3-(2-chloro-6-fluorophenyl)-5-(1-(2,3-dichlorophenyl)-5-(ethoxycarbonyl)-1H-pyrazol-4-yl)isoxazole-4-carboxylate] | 1000 to 10000 |  |  |  | 1000 to 10000 | 
CN(C)C(=O)c1c(-c2c(F)cccc2Cl)noc1-c1cnn(-c2ccccc2F)c1C(F)(F)F [Example I-20, 3-(2-chloro-6-fluorophenyl)-5-(1-(2-fluorophenyl)-5-(trifluoromethyl)-1H-pyrazol-4-yl)-N,N-dimethylisoxazole-4-carboxamide] | 1000 to 10000 | 1000 to 10000 |  |  |  | 
CNC(=O)c1c(-c2ccccc2)noc1-c1cnn(-c2cc(F)cc(F)c2)c1C(F)(F)F [Example I-113, 5-(1-(3,5-difluorophenyl)-5-(trifluoromethyl)-1H-pyrazol-4-yl)-N-methyl-3-phenylisoxazole-4-carboxamide] | 1000 to 10000 | 1000 to 10000 |  |  |  | 
CNC(=O)c1c(-c2c(F)cccc2Cl)noc1-c1cnn(CC(C)C)c1C(F)(F)F [Example I-37, 3-(2-chloro-6-fluorophenyl)-5-(1-isobutyl-5-(trifluoromethyl)-1H-pyrazol-4-yl)-N-methylisoxazole-4-carboxamide] | 100 to 1000 | 1000 to 10000 |  |  |  | 
CCOC(=O)c1c(-c2ccc(OC)cc2)noc1-c1cnn(-c2cccc(F)c2)c1C(F)(F)F [Example I-100, ethyl 5-(1-(3-fluorophenyl)-5-(trifluoromethyl)-1H-pyrazol-4-yl)-3-(4-methoxyphenyl)isoxazole-4-carboxylate] | 1000 to 10000 | 1000 to 10000 |  |  |  | 
COC(=O)c1sccc1-n1ncc(-c2onc(-c3c(F)cccc3Cl)c2C(=O)OC)c1C(F)(F)F [Example I-14, methyl 3-(2-chloro-6-fluorophenyl)-5-(1-(2-(methoxycarbonyl)thiophen-3-yl)-5-(trifluoromethyl)-1H-pyrazol-4-yl)isoxazole-4-carboxylate] | 10 to 100 | 100 to 1000 |  |  |  | 
CNC(=O)c1c(-c2c(F)cccc2Cl)noc1-c1cnn(-c2cc(F)cc(F)c2)c1C(F)(F)F [Example I-58, 3-(2-chloro-6-fluorophenyl)-5-(1-(3,5-difluorophenyl)-5-(trifluoromethyl)-1H-pyrazol-4-yl)-N-methylisoxazole-4-carboxamide] | 1000 to 10000 | 100 to 1000 |  |  |  | 
CNC(=O)c1c(-c2cccc(F)c2)noc1-c1cnn(-c2cccc(F)c2)c1C(F)(F)F [Example I-105, 3-(3-fluorophenyl)-5-(1-(3-fluorophenyl)-5-(trifluoromethyl)-1H-pyrazol-4-yl)-N-methylisoxazole-4-carboxamide] | 1000 to 10000 | 1000 to 10000 |  |  |  | 
CNC(=O)c1c(-c2c(F)cccc2Cl)noc1-c1cnn(-c2ccccc2OC)c1C(F)(F)F [Example I-60, 3-(2-chloro-6-fluorophenyl)-5-(1-(2-methoxyphenyl)-5-(trifluoromethyl)-1H-pyrazol-4-yl)-N-methylisoxazole-4-carboxamide] | 1000 to 10000 | 1000 to 10000 |  |  |  | 

Second part, led by results:

IC50 (IL-17FF; [2]) [nM] | IC50 (IFN-γ; [3]) [nM] | IC50 (IL-17FF; human PBMC, 2 μg/ml PHA, read-out: B: IC50 (IL-17FF)) [nM] | IC50 (IFN-γ; human PBMC, 2 μg/ml PHA, read-out: C: IC50 (IFNγ)) [nM] | SMILES | IC50 [1, 4] [nM] | IC50 ([1]; human PBMC, 2 μg/ml PHA, read-out: D: IC50 (Tcell proliferation)) [nM]
10 to 100 | 100 to 1000 |  |  | CON(C)C(=O)c1c(-c2ccccc2Cl)noc1-c1cnn(-c2cccc(Cl)c2)c1C(F)(F)F [IB-64, 3-(2-chlorophenyl)-5-(1-(3-chlorophenyl)-5-(trifluoromethyl)-1H-pyrazol-4-yl)-N-methoxy-N-methylisoxazole-4-carboxamide] | 100 to 1000 | 
1000 to 10000 | 1000 to 10000 |  |  | COC(=O)c1c(-c2c(F)cccc2Cl)noc1-c1cnn(-c2ccccc2Cl)c1C(F)(F)F [IB-20, methyl 3-(2-chloro-6-fluorophenyl)-5-(1-(2-chlorophenyl)-5-(trifluoromethyl)-1H-pyrazol-4-yl)isoxazole-4-carboxylate] | 1000 to 10000 | 
1000 to 10000 | 100 to 1000 |  |  | CCOC(=O)c1c(-c2c(Cl)cncc2Cl)noc1-c1cnn(-c2cccc(Cl)c2)c1C(F)(F)F [IB-7, ethyl 5-(1-(3-chlorophenyl)-5-(trifluoromethyl)-1H-pyrazol-4-yl)-3-(3,5-dichloropyridin-4-yl)isoxazole-4-carboxylate] | 1000 to 10000 | 
1000 to 10000 | 1000 to 10000 |  |  | CCOC(=O)c1c(-c2c(F)cccc2Cl)noc1-c1cnn(Cc2ccncc2)c1C(F)(F)F [IB-85, ethyl 3-(2-chloro-6-fluorophenyl)-5-(1-(pyridin-4-ylmethyl)-5-(trifluoromethyl)-1H-pyrazol-4-yl)isoxazole-4-carboxylate] |  | 
1000 to 10000 | 1000 to 10000 |  |  | CCOC(=O)c1c(-c2c(Cl)cncc2Cl)noc1-c1cnn(-c2cccc(F)c2)c1C(F)(F)F [IB-103, ethyl 3-(3,5-dichloropyridin-4-yl)-5-(1-(3-fluorophenyl)-5-(trifluoromethyl)-1H-pyrazol-4-yl)isoxazole-4-carboxylate] |  | 
1000 to 10000 | 1000 to 10000 |  |  | CON(C)C(=O)c1c(-c2c(F)cccc2Cl)noc1-c1cnn(-c2cccc(NC(C)=O)c2)c1C(F)(F)F [IB-87, 5-(1-(3-acetamidophenyl)-5-(trifluoromethyl)-1H-pyrazol-4-yl)-3-(2-chloro-6-fluorophenyl)-N-methoxy-N-methylisoxazole-4-carboxamide] |  | 
1000 to 10000 | 1000 to 10000 |  |  | NS(=O)(=O)c1cccc(-n2ncc(-c3onc(-c4c(F)cccc4Cl)c3C(=O)N3CCCO3)c2C(F)(F)F)c1 [IB-65, 3-(4-(3-(2-chloro-6-fluorophenyl)-4-(isoxazolidine-2-carbonyl)isoxazol-5-yl)-5-(trifluoromethyl)-1H-pyrazol-1-yl)benzenesulfonamide] |  | 
1000 to 10000 |  |  |  | O=CNc1c(-c2c(F)cccc2Cl)noc1-c1cnn(-c2cccc(Cl)c2)c1C(F)(F)F [IB-48, N-(3-(2-chloro-6-fluorophenyl)-5-(1-(3-chlorophenyl)-5-(trifluoromethyl)-1H-pyrazol-4-yl)isoxazol-4-yl)formamide] | 1000 to 10000 | 

From patent US8354436B2 (4SC Discovery GmbH, priority 2011, dated 2013)
